The results in this text go back to article PMC10914731, “Homo-BacPROTAC-induced degradation of ClpC1 as a strategy against drug-resistant mycobacteria” (Nature Communications, 2024).

The nature of one data set: in vivo. The class given is in vivo, BALB/cAnNCrl mice. As for the experimental part:
The in-life experimental procedures were conducted in strict compliance with German and European animal welfare legislation in an AAALAC-accredited facility. Male BALB/cAnNCrl mice (Charles River Laboratories Research Models and Services, 97633 Sulzfeld, Germany) were used. Animals were 9 weeks old at dosing with a body weight of 21.6–24.3 g. Animals were delivered free of pathogens according to FELASA recommendations with a health certificate provided by the breeder. Upon receipt, the state of health and sex was checked. Animals acclimatized for at least 5 days before the commencement of the in-life phase. During acclimation, animals were group-housed in individually ventilated cages, on birch wood granulate bedding with species-specific enrichment (nesting material, mouse igloo, gnawing wood). During experimental conduct, animals were housed in conventional cages with elevated grid floors. Grid floor was used to avoid contamination with test item material excreted via urine and feces and subsequent reuptake during fur grooming. No bedding and enrichment were provided except a cage divider, which can be used as a shelter. Animals always had unlimited access to food and water and received a pelleted, total pathogen-free maintenance diet and tap drinking water, sterilized by filter.
In case of incomplete dissolution, the formulation was filtered at 40 °C (non-pyrogenic sterile-R filter, 0.2 µm). All formulations were stirred warm until administration. Actual test item content was determined bioanalytically.
Male BALB/cAnNCrl mice (n = 3 per test item and administration route) received a bolus dose of the formulated test item(s) (1 mg/kg iv, 30 mg/kg po) at t = 0 h, and whole blood samples were collected subsequently (35 µl at 0.1 (iv) / 0.25 (po), 0.5, 1, 2, 4, 6 h; 600 µl at sacrifice after 24 h). Animals were euthanized by exsanguination in deep isoflurane anesthesia. Whole blood samples were immediately stored on ice at about 4 °C. Plasma was separated by centrifugation at approximately 10,000 × g for 5 m at +4 °C. Centrifugation of each blood sample was started within 10 m after collection. A single aliquot of at least 15 µL of plasma was prepared and immediately stored at −20 ± 5 °C.
Sample proteins were precipitated with ACN (1 + 12, v/v) containing internal standard, and supernatants analyzed by quantitative UPLC-MS/MS: Phenomenex Luna Omega C18, 2.1 × 50 mm, 1.6 µm, 40 °C, gradient between 10% - 90% ACN with 0.1% formic acid. LogD determination: Lipophilicity of the test items, expressed as chromLogD7.5, was assessed by measuring their chromatographic retention times on C18-material. The chromatographic retention versus logD7.5 values of a series of thirteen n-alkan-2-ones (2-butanone – 2-hexadecanone) served as lipophilicity calibration.

Data set [1] is classed as in vitro ADME, Rat.
In another data set the test system is Enterobacter cloacae. Description: MIC ESKAPES panel, Enterobacter cloacae. The data set is classed as cell-based. As for the experimental part: (§1) Minimum inhibitory concentration (MIC) against ESKAPES panel of Gram positive and Gram negative pathogens (Enterococcus faecium, Staphylococcus aureus, Klebsiella pneumoniae, Acinetobacter baumannii, Pseudomonas aeruginosa, Enterobacter cloacae and Salmonella typhimurium [ESKAPES panel]) were determined at the FNDR by the standard broth dilution method [CLSI, M100]. […] Mueller Hinton broth (MHB) medium was used to grow ESKAPES panel strains. The individual cultures were added as 200 μL (inoculum of 3–7 × 10^5 cfu/ml) to the respective assay plates in each well to all columns, except the media control (200 μL of medium). […] The assay plates were incubated at 37 °C, and the results were noted on the 2nd day as turbidometric readout. The clear wells indicated inhibition of growth, while the turbid wells indicated uninhibited growth.

Another data set relates to Staphylococcus aureus. Description: MIC ESKAPES panel, Staphylococcus aureus. The class given is cell-based. The procedure:
as §1

Another data set relates to Mtb # 11291. Description: microbe, parasite or virus in culture. The following applies: for MIC: read-out: MIC Mtb # 11291. The class given is cell-based.
Data set [2] relates to Mtb (katG del) ATCC 35822. Briefly: microbe, parasite or virus in culture. The class given is cell-based.
Where [3] appears, read: iv bolus, individual animals 1-3.
[4] abbreviates: iv bolus, mice, Mean, BLOQ <1.00 nmol/l.
[5] abbreviates: male, BALB/cAnNCrl, mouse, in vivo, iv, 0.0677 umol/kg, iv bolus, individual animals 1-3.
Setting [6] is: male, BALB/cAnNCrl, mouse, in vivo, iv, 0.0677 umol/kg, iv bolus, mice, Mean.
[7] abbreviates: Enterobacter cloacae, Gram negative, n = 3 well replicates.
Setting [8] is: Enterobacter cloacae, Gram-Negative Bacteria, replicates 1-3.
Where [9] appears, read: Staphylococcus aureus, Gram positive, n = 3 well replicates.
The mark [10] stands for this setting: Staphylococcus aureus, Gram-Positive Bacteria, replicates 1-3.
Setting [11] is: male, BALB/cAnNCrl, mouse, in vivo, iv, 1 mg/kg.
The mark [12] stands for this setting: Mycobacterium tuberculosis, mean, n = 2 well replicates.
Setting [13] is: Mycobacterium tuberculosis, single well replicates.
Where [14] appears, read: single well replicates, listed as 12 (UdSBI-4377).
The mark [15] stands for this setting: M. tuberculosis ATCC 35822, single well replicates.
Where [16] appears, read: Mycobacterium tuberculosis, ATCC35822, M. tuberculosis ATCC 35822, single well replicates.
The mark [17] stands for this setting: Mycobacterium tuberculosis, ATCC35822, Mtb (katG del) ATCC 35822, mean ± SD, n = 3 well replicates.

≈ marks a conversion by molar mass, not a printed value. Where “and” joins values, the source holds several entries; their conditions need not be identical. Equal entries are not always repeated. Where two headings read alike, the source gives them in different places. Some results are limits rather than exact numbers.

In the case of `CO[C@H](c1ccccc1)[C@@H]1NC(=O)[C@H](C)NC(=O)[C@H](C[C@@H](C)CO)N(C)C(=O)[C@H](Cc2cn(Cc3cn(CCOCCn4cc(Cn5cc(C[C@@H]6NC(=O)[C@H](C(C)C)NC(=O)[C@H](CC(C)C)N(C)C(=O)[C@H](C(C)C)NC(=O)[C@H]([C@H](OC)c7ccccc7)NC(=O)[C@H](C)NC(=O)[C@H](C[C@@H](C)CO)N(C)C6=O)c6ccccc65)nn4)nn3)c3ccccc23)NC(=O)[C@H](C(C)C)NC(=O)[C@H](CC(C)C)N(C)C(=O)[C@H](C(C)C)NC1=O` [Compound 6], the Cmax (usually the maximum level reached in the sampled fluid or tissue) in the data set “in vivo” (dose-normalized, mice, 1 mg kg-1 iv bolus) is 1820 nM/(nmol kg-1). In “in vivo” (setting [3]), the AUC0-inf/Dose was 3260 h nM/(nmol kg-1) and 5150 h nM/(nmol kg-1) and 5870 h nM/(nmol kg-1); the AUC0-t/Dose was 2600 h nM/(nmol kg-1) and 5020 h nM/(nmol kg-1) and 5730 h nM/(nmol kg-1); the CL was 3.2 mL/min/kg and 2.8 mL/min/kg; the “CL PL QH” value is 5.7% and 3.6% and 3.2%. In “in vivo” (setting [3]), the MRT (commonly the average time that molecules of a dose stay in the body) was 5.1 h and 5.3 h; the “Plasma concentration 0.1 h” value was 128 nmol/L and 127 nmol/L and 114 nmol/L; the “Plasma concentration 0.5 h” value was 47.9 nmol/L and 51.6 nmol/L and 58 nmol/L; the “Plasma concentration 1 h” value is 44.8 nmol/L and 45.0 nmol/L and 44.5 nmol/L. In the data set “in vivo” (setting [3]), the “Plasma concentration 2 h” value was 32.5 nmol/L and 36.4 nmol/L and 39.6 nmol/L; the “Plasma concentration 4 h” value was 17.3 nmol/L and 22.2 nmol/L and 13.8 nmol/L; the Vss (in general, a proportionality between amount in the body and measured concentration, not a real space) was 1.0 L/kg and 0.9 L/kg; the t1/2 is 4.8 h and 4.9 h. In addition, the “Plasma concentration 6 h” value in the data set “in vivo” (iv bolus, individual animals 1-3, BLOQ <1.00 nmol/l) is 11.6 nmol/L and 14.7 nmol/L and 20.6 nmol/L. The Cmax in “in vivo” (iv bolus, individual animals 1-3, read-out: Cmax) was 127 nM and 114 nM. Further, in “in vivo” (iv bolus, mice, Mean), the AUC0-inf/Dose was 4760 h nM/(nmol kg-1), the AUC0-t/Dose is 4450 h nM/(nmol kg-1), the “CL PL QH” value stood at 4.1% and the “Plasma concentration 0.1 h” value came to 123 nmol/L. Besides, in the data set “in vivo” (iv bolus, mice, Mean), the “Plasma concentration 0.5 h” value is 52.5 nmol/L, the “Plasma concentration 1 h” value turned out to be 44.8 nmol/L, the “Plasma concentration 2 h” value was 36.2 nmol/L and the “Plasma concentration 4 h” value is 17.8 nmol/L. Moreover, in the data set “in vivo” (setting [4]), the “Plasma concentration 6 h” value was 15.6 nmol/L and the “Plasma concentration 24 h” value was found to be 1.3 nmol/L. The tmax in “in vivo” (male, BALB/cAnNCrl, mouse, in vivo, 0.0677 umol/kg, iv bolus, individual animals 1-3) came to 6 min. In addition, in the data set “in vivo” (setting [5]), the clearance (commonly the volume of plasma or blood freed of the substance per unit of time) was 5.1 mL/min/kg and the half-life (usually the time needed for the level to fall by half in the phase considered) is 162 min. Further, in the data set “in vivo” (male, BALB/cAnNCrl, mouse, in vivo, iv, 0.0677 umol/kg, iv bolus, individual animals 1-3, read-out: Cmax), the Cmax worked out at 128 nM. Further, the MRT in the data set “in vivo” (male, BALB/cAnNCrl, mouse, in vivo, iv, 0.0677 umol/kg, iv bolus, individual animals 1-3, read-out: MRT) was found to be 3.6 h. The Vd in the data set “in vivo” (male, BALB/cAnNCrl, mouse, in vivo, iv, 0.0677 umol/kg, iv bolus, individual animals 1-3, read-out: Vss) was determined as 1.1 L/kg. In the data set “in vivo” (setting [6]), this compound had a clearance of 3.7 mL/min/kg and a half-life of 246 min. Besides, the Cmax in the data set “in vivo” (male, BALB/cAnNCrl, mouse, in vivo, iv, 0.0677 umol/kg, iv bolus, mice, Mean, read-out: Cmax) came out at 123 nM. Moreover, in “in vivo” (male, BALB/cAnNCrl, mouse, in vivo, iv, 0.0677 umol/kg, iv bolus, mice, Mean, read-out: MRT), the MRT is 4.7 h. Besides, in the data set “in vivo” (male, BALB/cAnNCrl, mouse, in vivo, iv, 0.0677 umol/kg, iv bolus, mice, Mean, read-out: Vss), the Vd worked out at 1 L/kg. Also, the Vd in “in vivo” (male, BALB/cAnNCrl, mouse, in vivo, iv, 1 mg/kg, mice, 1 mg kg-1 iv bolus, read-out: VSS) was determined as 0.95 L/kg. In the data set “in vivo” (male, BALB/cAnNCrl, mouse, in vivo, iv, 1 mg/kg, plasma clearance, mice, 1 mg kg-1 iv bolus), the clearance amounted to 3.73 mL/min/kg. The half-life in “in vivo” (male, BALB/cAnNCrl, mouse, in vivo, iv, 1 mg/kg, plasma, mice, 1 mg kg-1 iv bolus) is 200 min. The “Hepatocyte Rat” value in data set [1] (clearance in hepatocytes) worked out at 6 %Qh.
`COC(c1ccccc1)C1NC(=O)C(C)NC(=O)C(CC(C)CO)N(C)C(=O)C(Cc2cn(C)c3ccccc23)NC(=O)C(Cc2cn(CCCCCn3cc(CC4NC(=O)C(CC(C)C)N(C)C(=O)C(C(C)C)NC(=O)C(C(OC)c5ccccc5)NC(=O)C(C)NC(=O)C(CC(C)CO)N(C)C(=O)C(Cc5cn(C)c6ccccc56)NC4=O)nn3)nn2)NC(=O)C(CC(C)C)N(C)C(=O)C(C(C)C)NC1=O` (centres unmarked) [Compound 12]: the MIC is > 50 µM against Enterobacter cloacae (setting [7]); > 99 µg/mL in the data set with Enterobacter cloacae (setting [8]); >50 µM with Enterobacter cloacae (Gram-Negative Bacteria, replicates 1-3, listed as 12 (UdSBI-4377)); >50 µM against Staphylococcus aureus (Gram-Positive Bacteria, replicates 1-3, listed as 12 (UdSBI-4377)); > 50 µM in the data set on Staphylococcus aureus (setting [9]); > 99 µg/mL in the data set with Staphylococcus aureus (setting [10]). For the same compound, the MIC was < 0.1 µM and < 0.2 µg/mL in the data set with Mtb # 11291 (setting [12]); < 0.1 µM and < 0.19 µg/mL in the data set on Mtb # 11291 (setting [13]); <0.1 µM in the data set on Mtb # 11291 (setting [14]); 0.098 µM (≈ 0.194 µg/mL) in data set [2] (setting [15]); 0.098 µM (≈ 0.194 µg/mL) in data set [2] (setting [16]); 0.1 µM (≈ 0.198 µg/mL) in data set [2] (setting [17]). This compound also yielded a Cl in the data set “in vivo” (setting [11]) of 4.14 mL/min/kg. In “in vivo” (setting [11]), the T1/2 is 1.37 h. Besides, the VSS in “in vivo” (setting [11]) is 0.42 L/kg. In addition, the AUC in the data set “in vivo” (mouse, in vivo, iv) was 3870 h nM/(nmol kg-1). Besides, the Cmax in “in vivo” (mouse, in vivo, iv) is recorded as 3270 nM/(nmol kg-1). The “Plasma concentration 24 h” value in “in vivo” (mouse, in vivo, iv) is reported as “BLOQ”. In addition, the “MIC Mtb # 11291” value with Mtb # 11291 (setting [14]) is <0.19 µg/mL. The “Hepatocyte Rat” value in data set [1] (rat, pH 7.4) was found to be 6 %Qh.
Take `COc1c(N2C[C@@H]3CCCN[C@@H]3C2)c(F)cc2c(=O)c(C(=O)O)cn(C3CC3)c12` [Moxifloxacin, reference compound]: the MIC with Enterobacter cloacae (setting [7]) was 0.3 µM; against Enterobacter cloacae (setting [8]), 0.31 µM and 0.125 µg/mL; against Staphylococcus aureus (setting [9]), 0.3 µM; with Staphylococcus aureus (setting [10]) it was 0.31 µM and 0.125 µg/mL; in the data set on Mtb # 11291 (setting [12]), 0.2 µM (≈ 0.0803 µg/mL); with Mtb # 11291 (setting [13]) it was 0.24 µM (≈ 0.0963 µg/mL). Also, the MIC with Mtb # 11291 (single well replicates) stood at 0.24 µM (≈ 0.0963 µg/mL); in data set [2] (setting [15]), 0.31 µM (≈ 0.124 µg/mL); in data set [2] (setting [16]), 0.31 µM (≈ 0.124 µg/mL); in data set [2] (setting [17]), 0.3 µM (≈ 0.12 µg/mL). Besides, the “MIC Mtb # 11291” value against Mtb # 11291 (single well replicates) came out at 0.10 µg/mL (≈ 0.249 µM).
